Where “and” joins values, the source holds several entries; their conditions need not be identical. Equal entries are not always repeated. Where two headings read alike, the source gives them in different places.
Legend:
[1] = biological target: Sigma-1 Receptor (S1R) (Homo sapiens (Human), UniProt Q99720); assay: In-vitro binding assay, Sigma-1 receptor; settings: for S1R fold selectivity (S2R/S1R): ratio S2R Ki/S1R Ki
Procedure: (§1) In-vitro binding assays performed at Eurofins Panlabs Taiwan, Ltd. Specific ligand binding was determined in the presence of an excess of unlabelled ligand.

[2] = test system: YAC128 HD mice
Procedure: (§2) Animals. […] Mice were bred at the Biological Resource Centre (Agency for Science, Technology and Research, ASTAR), and group-housed with littermates of mixed genotype. Animals were maintained under a 12-h light cycle (lights on at 09:00) in a clean facility, and given free access to food and water. Experiments were performed with the approval of the Institutional Animal Care and Use Committee at the Biomedical Sciences Institute (ASTAR) and in accordance with their approved guidelines.
(§3) Animals were weighed every two weeks to ensure the correct dose was maintained.
(§4) Mice were divided into three groups. […] One cohort was behaviorally tested every two months commencing at 2 months of age. Mice were tested for psychiatric function (open field, elevated plus maze, and forced swim test). Tests were conducted at a set time during the day, prior to drug administration.

[3] = test system: rodents exhibiting symptoms of anxiety; settings: periodic administration, paper example
[4] = test system: YAC128 HD mice; settings: early treatment from 1.5 months, 30 mg/kg
Procedure: as §2, §3, §4
Anxiety-like behavioral tests. The open-field (OF) and elevated plus maze (EPM) tests are used to assess anxiety-like behavioral in rodents. The time spent in the center of the arena in the OF and the time spent in the open arms of the maze in the EPM are considered measures of anxiety-like behavior.

[5] = biological target: D2Rs (Homo sapiens (Human), UniProt P14416); settings: cited from earlier work
[6] = biological target: Sigma-2 receptor (S2R) (Homo sapiens (Human), UniProt Q5BJF2); assay: In-vitro binding assay, Sigma-2 receptor; settings: Cheng Prusoff equation
Procedure: as §1

[7] = test system: HD patients; settings: 45 mg bid
Excerpt: PBA-S includes behavioral assessments of depressed mood, anxiety, apathy and irritability.
The lack of initiative subscale of the PBA-S is a measure of apathy in HD patients. Apathy is a symptom common to HD and depression.
The Problem Behaviors Assessment-Short (PBA-s) scale, is a measure of psychiatric symptoms including anxiety, depression and apathy. The PBA-s is an interview designed specifically for rating the severity and frequency of behavioral abnormalities in HD. PBA-S includes behavioral assessments of depressed mood, anxiety, apathy and irritability. This scale is widely used in HD clinical trials and recommended as a measure of screening behavioral symptoms, including depression and anxiety. […] The lack of initiative subscale of the PBA-S is a measure of apathy in HD patients. Apathy is a symptom common to HD and depression.

[8] = test system: Male NMRI mice; settings: 30 min before test
Excerpt: Animals were assigned according to the experimental plan to one of the 4 test boxes run simultaneously.
The number of marbles covered by sawdust were counted. The experimenter also observed the animals for obvious inhibition of general activity (locomotor activity).

[9] = biological target: D3Rs (Homo sapiens (Human), UniProt P35462); settings: cited from earlier work
[10] = test system: Male Sprague-Dawley rats; settings: 30 mg/kg p.o., 30 min and 120 min after administration
Procedure: Male Sprague-Dawley rats (270-400 g bodyweight) were housed in groups of two in a temperature (20±2° C.) and humidity (50-60%) controlled colony room under a non-reversed 12 (6-18 on)/12 h light-dark cycle with food and water ad libitum except during the actual experiments. 4 rats were used for each drug dose and the vehicle-treated control group.
USV was recorded by a microphone and processed by an interface to select USV signals and to digitize the resulting signals for automatic processing. In the priming phase, each rat was placed in the test chamber. After a 2 min time period, a series of at most ten shocks (trials), 1.8 mA for 0.3 s, separated by 20 s shock-free intervals, was delivered via the grid floor of the test chamber. In the shock-free intervals the occurrence of ultrasonic vocalization (22±5 kHz) was automatically recorded, and the duration of ultrasonic vocalization was calculated immediately. The priming session was terminated either when the rat constantly vocalized at least for 10 s on three consecutive trials or after the tenth trial. Rats not responding with USV on three consecutive trials were excluded from the test. In the actual test performed on the next day, each rat received 5 initial shocks (1.8 mA for 0.3 s, separated by 20 s shock-free intervals) in the test chamber, and the duration of USV (22+4 kHz) was recorded during the following 3 min period.

[11] = test system: Sprague-Dawley male rats; settings: FST day 8
Excerpt: On day 8, rats were again placed in a water tank, and time spent immobile measured.
Sprague-Dawley male rats, 6 weeks old were used. Rats were pre-tested on day 1 to ensure stable and high duration of immobility during the 5-min test session.

[12] = test system: B104 neuroblastoma cells; assay: BDNF release from B104 cells, in-situ ELISA; assay type: cell-based, rat; settings: 5 days, vs untreated control
[13] = test system: patient diagnosed with anxiety or depression; settings: periodic administration, intravenous or oral, paper example

Sequence of Sigma-1 Receptor (S1R) (Q99720 whole entry, species assumed): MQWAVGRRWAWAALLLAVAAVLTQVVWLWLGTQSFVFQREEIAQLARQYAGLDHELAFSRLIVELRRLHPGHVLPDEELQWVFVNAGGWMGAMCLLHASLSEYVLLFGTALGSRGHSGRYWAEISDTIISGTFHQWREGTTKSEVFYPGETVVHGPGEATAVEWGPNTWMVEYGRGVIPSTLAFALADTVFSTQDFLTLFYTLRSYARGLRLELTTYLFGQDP
Sequence of D2Rs (P14416 whole entry): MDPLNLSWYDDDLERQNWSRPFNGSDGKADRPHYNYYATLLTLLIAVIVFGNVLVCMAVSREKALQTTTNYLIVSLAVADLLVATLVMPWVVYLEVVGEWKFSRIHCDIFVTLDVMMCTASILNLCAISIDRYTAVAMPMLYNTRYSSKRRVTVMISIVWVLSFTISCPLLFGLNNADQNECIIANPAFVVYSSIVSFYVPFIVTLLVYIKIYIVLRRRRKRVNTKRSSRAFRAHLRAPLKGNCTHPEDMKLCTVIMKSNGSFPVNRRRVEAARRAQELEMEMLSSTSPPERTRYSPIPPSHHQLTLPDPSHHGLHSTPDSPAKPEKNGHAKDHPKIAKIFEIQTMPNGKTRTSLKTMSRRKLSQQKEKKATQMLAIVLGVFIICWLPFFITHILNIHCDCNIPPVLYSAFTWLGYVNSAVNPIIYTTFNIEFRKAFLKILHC
Sequence of Sigma-2 receptor (S2R) (Q5BJF2 whole entry, species assumed): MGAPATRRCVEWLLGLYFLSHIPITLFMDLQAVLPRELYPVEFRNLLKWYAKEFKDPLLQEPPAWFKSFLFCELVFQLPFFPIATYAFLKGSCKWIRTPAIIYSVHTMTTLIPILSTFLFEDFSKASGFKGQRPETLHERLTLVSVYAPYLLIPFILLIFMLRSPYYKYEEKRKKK
Sequence of D3Rs (P35462 whole entry): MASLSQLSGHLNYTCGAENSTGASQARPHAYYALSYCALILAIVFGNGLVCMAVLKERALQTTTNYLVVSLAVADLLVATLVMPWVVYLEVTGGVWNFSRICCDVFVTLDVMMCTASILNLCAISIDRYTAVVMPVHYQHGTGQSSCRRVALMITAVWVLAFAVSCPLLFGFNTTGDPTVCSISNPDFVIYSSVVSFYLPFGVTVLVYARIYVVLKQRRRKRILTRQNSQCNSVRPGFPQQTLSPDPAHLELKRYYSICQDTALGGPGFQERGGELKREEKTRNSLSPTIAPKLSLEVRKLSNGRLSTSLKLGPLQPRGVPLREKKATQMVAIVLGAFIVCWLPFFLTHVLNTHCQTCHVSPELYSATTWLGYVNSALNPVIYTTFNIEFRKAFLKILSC

Question: Which Ki ([1]; Cheng Prusoff equation) does the source give for `CCCN1CCC(c2cccc(S(C)(=O)=O)c2)CC1` [Pridopidine, 4-[3-(methylsulfonyl)phenyl]-1-propyl-piperidine] here?
Answer: The Ki was 57 nM.

Question: What about the “time spent immobile in forced swim test” value ([2]; early treatment from 1.5 months, 30 mg/kg, 12 months of age) of the same molecule?
Answer: Its value is “reduced the time spent immobile”.

Question: What about the “depressive-like behavior, immobility time in forced swim test” value ([2]; late (manifest) treatment from 8 months, escalating to 30 mg/kg oral gavage) of the same molecule?
Answer: The value was “significantly improves depressive-like phenotype”.

Question: And the “efficacy in treating anxiety” value [3]?
Answer: Its value is “effective in treating anxiety”.

Question: And the “time spent in the center of the arena (open field)” value ([4]; tested at 6 months)?
Answer: Its value is “increased the time spent in the center of the arena”.

Question: What about the “time spent in the open arms (elevated plus maze)” value ([4]; tested at 8 months) of the same molecule?
Answer: The value was “decreased anxiety-like behavior”.

Question: What about the “higher affinity towards the S1R vs D2Rs” value [5] of the same molecule?
Answer: Its value is about 500 fold.

Question: What about the Ki [6] of the same molecule?
Answer: The Ki was 5450 nM.

Question: And the “PBA-S change from baseline vs placebo” value ([7]; week 52, p=0.0603)?
Answer: Its value is −2.13 units.

Question: What about the “PBA-S lack of initiative measure, change from baseline vs placebo” value ([7]; week 52, p=0.0704) of the same molecule?
Answer: Its value is −1.27 units.

Question: What about the inhibition of marble-burying ([8]; 1 mg/kg p.o.) of the same molecule?
Answer: The inhibition of marble-burying was 8%.

Question: And the inhibition of marble-burying ([8]; 3 mg/kg p.o.)?
Answer: Its inhibition of marble-burying is 49%.

Question: And the inhibition of marble-burying ([8]; 10 mg/kg p.o.)?
Answer: The inhibition of marble-burying was 62%.

Question: What about the inhibition of marble-burying ([8]; 30 mg/kg p.o.) of the same molecule?
Answer: Its inhibition of marble-burying is 73%.

Question: What about the “higher affinity towards the S1R vs D3Rs” value [9] of the same molecule?
Answer: The value was about 30 fold.

Question: And the “effect on USV duration” value [10]?
Answer: Its value is “significantly inhibited USV”.

Question: What about the “decrease in immobility time” value ([11]; 3 mg/kg oral gavage daily for 7 days) of the same molecule?
Answer: Its value is 38%.

Question: And the “decrease in immobility time” value ([11]; 15 mg/kg oral gavage daily for 7 days)?
Answer: The value was 58%.

Question: And the “increase in BDNF secretion” value ([12]; pridopidine 0.001 μM alone)?
Answer: Its value is 13.6% and 13.5%.

Question: And the “increase in BDNF secretion” value ([12]; pridopidine 0.005 μM alone)?
Answer: The value was 26%.

Question: What about the “increase in BDNF secretion” value ([12]; pridopidine 0.01 μM alone) of the same molecule?
Answer: Its value is 3.4%.

Question: What about the “efficacy in treating patient with anxiety or depression” value [13] of the same molecule?
Answer: The value was “effective in treating the patient”.

Question: What does the source list for `CCCN1CCC(O)(c2cccc(S(C)(=O)=O)c2)CC1` [Compound 1]?
Answer: S1R fold selectivity (S2R/S1R) [1]: >270 fold; increase in BDNF secretion ([12]; Compound 1 1 μM alone): 12.5%

Question: Which results are given for `CCCN1CC[C@@H](c2cccc(S(C)(=O)=O)c2)[C@@H](O)C1` [Compound 4]?
Answer: S1R fold selectivity (S2R/S1R) [1]: >35 fold; change in BDNF secretion ([12]; Compound 4 0.001 μM alone): −1.5%

Reference: patent publication US20230390272A1 (PRILENIA NEUROTHERAPEUTICS LTD., priority 2020, published 2023)
